Several values for one entry are separate records, joined by “and”; a condition that tells them apart may be missing. Identical values can stand only once. Entries after “also recorded” stand apart in the source; their conditions may differ.
Tests used:
[1] = test system: CMV; experiment: In vitro antiviral activity in cell culture; assay type: cell-based; details: Human betaherpesvirus 5
[2] = test system: AdV; experiment: In vitro antiviral activity in cell culture; assay type: cell-based
[3] = test system: EBV; experiment: In vitro antiviral activity in cell culture; assay type: cell-based; details: human gammaherpesvirus 4
[4] = test system: BKV; experiment: In vitro antiviral activity in cell culture; assay type: cell-based
[5] = Safety in clinical trials; assay type: in vivo, human; details: extensive clinical trials
[6] = Pharmacokinetic analysis in pediatric and geriatric patients; assay type: in vivo, human
Description: This study population included five children. Pediatric patients received approximate doses of 1, 2, 3, or 4 mg/kg given once or twice weekly. […] Variability in PK parameters for this age group was high with respect to AUC, Cmax, and CL/F. In general, pediatric patients had lower plasma concentrations of HDP-CDV and CDV than adult healthy volunteers or patients on the same dose and schedule.
The study population also included 3 elderly adults. Geriatric patients received approximate doses of 1, 2, or 3 mg/kg given either once or twice weekly. Similar to pediatric patients, the medical condition of geriatric patients varied widely. Variability in PK parameters for this age group was high with respect to AUC, Cmax, and CL/F. In general, geriatric patients had higher plasma concentrations of HDP-CDV and CDV and lower CL/F than those observed in younger healthy volunteers or patients.
High CDV CL/fm values were also observed in children.

[7] = test system: BKV; experiment: Study HDP-CDV-201: hematuria and BKV bladder events; assay type: in vivo, human
Description: A multicenter, randomized, double-blind, placebo-controlled, dose-escalation study of safety, tolerability, and ability of HDP-CDV to prevent or control […], and EBV infection and associated disorders was conducted. During enrollment of patients in the study, urine samples of candidate patients were routinely screened for BKV. Plasma was collected from patients who tested positive for BKV viruria in urine, and AdV, EBV and BKV level in the plasma was evaluated.

[8] = test system: VZV-BAC-Luc strain; assay type: in vivo, mouse
[9] = test system: VZV; experiment: Virus spread in VZV-infected cultures; assay type: cell-based; details: 1 day of 20 μg/mL in the medium, given on Day −1, 0, 2, or 3
[10] = test system: JCV; experiment: HDP-CDV given to patients with viral infections, virology data; details: patient, JCV associated PML; 2 mg/kg BIW; initial 398 (CSF) and 557 (urine)
[11] = test system: ADV; experiment: as above
[12] = test system: BKV; experiment: as above; details: patient
[13] = test system: CMV; experiment: as above; details: patient
[14] = test system: EBV; experiment: as above; details: 4 mg/kg BIW
[15] = test system: BKV; experiment: Study HDP-CDV-201: serum creatinine as marker of renal function; details: for Creatinine level and renal function vs placebo: BKU+ at baseline (post-HSCT engraft)
[16] = patient 21 mo, 10 kg, 2 mg/kg BIW
[17] = patient, 67 kg, 2 mg/kg BIW, 4 mg/kg BIW
[18] = patient, 70 kg, 2 mg/kg every three days

CCCCCCCCCCCCCCCCOCCCOP(=O)(O)COC(CO)Cn1ccc(N)nc1=O (stereo not shown) [HDP-CDV]
EC50 [1]: 1 nM | EC50 [2]: 20 nM | EC50 [3]: 40 nM | EC50 [4]: 130 nM | myelosuppression or nephrotoxicity [5]: has not been associated with either myelosuppression or nephrotoxicity | CDV CL/fm values ([6]; children): High | CL/F vs younger healthy volunteers or patients ([6]; geriatric patients aged 66-68 years): lower | plasma concentrations of HDP-CDV and CDV vs younger healthy volunteers or patients ([6]; geriatric patients aged 66-68 years, approx. 1-3 mg/kg once or twice weekly): higher | CL/F values vs older subjects ([6]; patients <20 years of age): higher | developed Hem+ during the Study ([7]; BK viruria positive (BKU+) at Baseline, 4 of 77, placebo 33%): 5% | clinical bladder adverse events related to BKV ([7]; BKU+ subjects at Baseline (6/77), placebo 12.5-13%): 8% and 7.8% | Hem+ ([7]; BKU− subjects): 4% | Hem+ vs placebo ([7]; BKV viruria negative (BKU−) at baseline, FIG. 1): no significant difference | BKV associated adverse bladder events ([7]; HDP-CDV treatment vs placebo): decreased frequency; also recorded: decreased the incidence; also recorded: beneficial effect | rate of confirmed blood positive urinalyses relative to placebo-treated subjects ([7]; HDP-CDV- compared to placebo-treated): ⅙^th | Hematuria (Hem+) vs placebo ([7]; HSCT patients with BKV at base line (BKU+), FIG. 1): prevented Hematuria; also recorded: reduces hematuria | BK-related bladder events (cystitis or blood in urine) ([7]; all HDP-CDV subjects (6/171), placebo 5.1%): 3.5% | rate of blood positive urinalyses during the treatment period ([7]; all HDP-CDV-treated subjects (8/171), placebo 15.2%): 4.7% | subjects with BK-related bladder AEs ([7]; received 40 mg QW): 2 | microscopic hematuria ([7]; subjects shedding BKV in their urine): reduction in microscopic hematuria | BK-related bladder AEs ([7]; subjects who received doses >100 mg QW (4/171)): 2.3% | difference between pooled HDP-CDV- and placebo-treated groups in rates of confirmed blood positive urinalyses ([7]; subjects with BKV viruria during the treatment period): ~6 fold | rate of confirmed blood positive urinalyses ([7]; subjects with BKV viruria during the treatment period (4/171), placebo 13.6%): 2.3% | rate of blood positive urinalyses ([7]; subjects without BK viruria, placebo 1.7%): 2.4% | viral load (qPCR) ([8]; 1.25, 2.5, and 5.0 mg/kg, 8 doses once daily): dose dependent | efficacy in vivo ([8]; SCID-Hu mouse model of VZV replication): highly effective | reduction of virus spread [9]: 2-3 Log10 | JCV viral load in the CSF and urine during treatment [10]: viral load became undetectable (<300 copies/mL | ADV in stool on therapy ([11]; patient 9 months, 6.58 kg, disseminated ADV, 3 mg/kg BIW): decreased by a similar amount. | stool ADV decline ([11]; patient 16 mo, 10.4 kg, 4 mg/kg BIW, 3 weeks): ADV declined approximately 1 log10 over | Plasma ADV after 3 weeks of therapy ([11]; patient 16 mo, 10.4 kg, 4 mg/kg BIW, from 809 c/ml): declined from 809 c/ml to undetectable | plasma ADV viremia after discontinuation (rebound) [11, 16]: CDV when it rebounded to 100 copies/ml. | response in stool viral load [11, 16]: load (<10-fold). | plasma ADV viremia on treatment ([11]; patient 21 mo, 10 kg, 2 mg/kg BIW, baseline 100 copies/mL): became undetectable and stayed | decrease in plasma ADV ([11]; patient, 14.1 kg, 4 mg/kg BIW): ADV2. A ~2 log10 decrease in plasma | ADV in blood 4 days after one dose ([11]; patient, 19.1 kg, disseminated ADV, 60 mg BIW, from 51,000 c/mL): 100 c/mL in 4 days after one dose. | Adenovirus decline in plasma ([11]; patient, 65 kg, 2 mg/kg BIW, to the limit of detection): ADV 5 (plasma). Adenovirus declined 2.6 log10 | ADV viruria initial decline [11, 17]: respond well initially with a 2.4 log10 | ADV viruria rebound, distance from baseline [11, 17]: decline only to rebound to within 0.7 log10 | ADV plasma viremia decline ([11]; patient, 67 kg, 2 mg/kg BIW, 4 mg/kg BIW, from 5.1 log10 to the limit of detection): declined 3.1 logs from 5.1 log10 to the limit | ADV viremia approximately two weeks after D/C [11, 18]: HDP-CDV, ADV viremia rebounded. | Colon biopsy for ADV after therapy [11, 18]: negative | ADV viremia decrease ([11]; patient, 70 kg, 2 mg/kg every three days, after 3 weeks): > 3 log10 | ADV viremia after 3 weeks ([11]; patient, 70 kg, 2 mg/kg every three days, from 430,000 copies/mL): copies/mL to undetectable after 3 weeks | stool viral load ([11]; patient, 81 kg, ADV pneumonia, 2 mg/kg BIW): modest decline in stool viral load. | Plasma ADV decline ([11]; patient, 81 kg, ADV pneumonia, 2 mg/kg BIW, 10 days/4 doses): ADV 12. Plasma ADV declined 2.4 log10 | ADV viremia decrease ([11]; patient, 108 kg, 3 mg/kg first dose, 2 mg/kg BIW thereafter, after approximately 2-3 weeks): ~2 log10 | ADV viremia after first two weeks ([11]; patient, 4 mg/kg BIW, 3 doses, from 1.5 million): ADV viremia from 1.5 million to 98,000 c/ml | decrease in ADV viremia ([11]; patient, 4 mg/kg BIW, first two weeks, 3 doses): This patient had a 1.2 log10 decrease in | response of BKV in urine ([12]; 57.9 kg, 2 mg/kg BIW): CMV viremia but no sustained response of | BK viruria during administration ([12]; 69 kg, BKV hemorrhagic cystitis, 2 mg/kg, 1 mg/kg second dose, then 2 mg/kg BIW): ganciclovir. BK viruria decreased during | BKV in urine ([12]; 108 kg, 3 mg/kg first dose, 2 mg/kg BIW thereafter, by a similar amount (almost 2 log10)): rose | decrease in CMV viremia ([13]; 61 kg, GCV res (UL97), 3 mg/kg BIW, first month of dosing): GCV res (UL97). There was a 1.9 log10 | CMV viremia 4 days after the third dose ([13]; 63.3 kg, refractory CMV, UL97 and UL54 mutations, 4 mg/kg BIW, from 9200 copies/mL): first day of dosing to 1000 copies/mL 4 | CMV after dosing interruption ([13]; 63.3 kg, refractory CMV, 4 mg/kg BIW): interrupted resulting in virologic rebound. | CMV suppression during therapy ([13]; 69 kg, 2 mg/kg, 1 mg/kg second dose, then 2 mg/kg BIW, after discontinuation of ganciclovir): CMV suppression continued during HDP- | CMV viremia during therapy ([13]; 72.8 kg, post lung transplant CMV, 3 mg/kg BIW): There was no change in CMV viremia | decrease in EBV levels in blood ([14]; patient 6 months, 6 kg, EBV associated PTLD, four days after starting): There was approximately a 5-fold decrease | blood EBV viral load after one month of therapy ([14]; patient 22 months, 13.8 kg, from >50,000,000 copies/mL): copies/mL to 100,000 copies/mL over one | replication of EBV as measured by plasma PCR ([14]; patient, 27 kg, EBV-associated PTLD): There is no evidence of on-going | rates of creatinine elevations or creatinine or heme+ urine, HDP-CDV vs placebo ([15]; 105 subjects consistently BK negative): numerically similar | creatinine elevations >120 microM and =>25% increase over baseline ([15]; BK negative throughout (7/78), placebo 7.4%): 9.0% | creatinine elevations (>120 last and >25% increase from baseline) OR 1+ heme, confirmed, new onset ([15]; BK negative throughout (11/78), placebo 11.1%): 14.1% | end of treatment creatinine elevations >120 microM and =>25% over baseline ([15]; BK positive during treatment (7/93), placebo 18.75%): 7.5% | creatinine elevations (>120 last and >25% increase from baseline) OR 1+ heme, confirmed, new onset ([15]; BK positive during treatment (11/93), placebo 37.5%): 11.8% | difference in frequency between treatments, creatinine elevations or new onset heme+ urinalyses ([15]; BK-positive subjects): 3.2 fold | Creatinine level and renal function vs placebo ([15]; FIG. 2): prevented increase in Creatinine level and worsening of renal function | Creatinine level and renal function vs placebo ([15]; FIG. 2, listed as HDP-cidofovir): reduces renal impairment | developed renal impairment ([15]; BKU+ subjects (10/77), placebo 29%): 13% | end organ damage vs placebo ([15]; BKU− at baseline, FIG. 2): did not impact the end organ damage | renal impairment ([15]; BKU− subjects (6/94), placebo 6%): 6% | efficacy of twice weekly dosing ([15]; Study HDP-CDV-201 retrospective analysis): equally or more effective | reduction of the incidence of renal dysfunction (creatinine elevations) vs placebo ([15]; subjects BK viruric during the treatment period): 2.5 fold

Source: patent US20150087619A1, “METHOD OF MITIGATING VIRUS ASSOCIATED END-ORGAN DAMAGE” (CHIMERIX, INC., priority 2012, published 2015)
